In brackets after ≈: the same amount, converted by molar mass. Like-named read-outs stand apart in the source and are kept apart here. Each block holds one molecule with its values, some of them ahead of it.
How the values were obtained:
Test in all cases: MIC and MBC testing, broth microdilution
E. coli ATCC 25922 = type: cell-based, Escherichia coli
Text: (§1) The minimum inhibitory concentrations (MICs) and minimum bactericidal concentrations (MBCs) of the synthesized compounds effective against ESKAPE strains, S. aureus clinical isolates, and MRSA were investigated by the broth dilution method. Levofloxacin is a broad-spectrum antibacterial agent that is widely used in the treatment of ESKAPE infections. Therefore, levofloxacin was selected as the positive control for the preliminary activity screening. DMSO (0.1%) was selected as the negative control.
(§2) The minimum inhibitory concentration (MIC) of all synthesized compounds was tested by the broth microdilution method. In brief, compounds dissolved in DMSO were diluted twice continuously in a 96-well plate with MH broth. The ESKAPE pathogens (E. coli ATCC 25922, S. aureus ATCC 29213, K. pneumoniae ATCC 700603, A. baumannii ATCC 19606, P. aeruginosa ATCC 27853, and E. faecium ATCC 35667), clinical S. aureus isolates (LMY45, LMY46, LMY47, and LMY48) and methicillin-resistant Staphylococcus aureus (MRSA-1 and MRSA-2) were cultured in MH broth to logarithmic growth phase and then diluted to 1 × 10^6 CFU/mL in MH broth. Subsequently, the diluted bacterial solution was mixed with the diluted compound solution in a 96-well plate and incubated at 37 °C for a duration of 18 h. The MIC of the compounds was recorded as the lowest concentration at which no visible growth was observed. […] Each concentration was replicated thrice.

S. aureus ATCC 29213 = type: cell-based, Staphylococcus aureus; conditions: S. aureus ATCC 29213; for MIC: 18 h
Text: as §1, §2

[1] = tested on: clinical S. aureus isolate LMY48; type: cell-based, Staphylococcus aureus; conditions: LMY48; for MIC: 18 h
Description: (§3) Furthermore, the MBC values of the compounds were detected.
as §2, with “h.” for “h. The MIC of the compounds was recorded as the lowest concentration at which no visible growth was observed.”

MRSA-2 = type: cell-based, Staphylococcus aureus; conditions: MRSA-2; for MIC: 18 h
Description: as §3
as §2, with “h.” for “h. The MIC of the compounds was recorded as the lowest concentration at which no visible growth was observed.”

[2] = tested on: clinical S. aureus isolate LMY45; type: cell-based, Staphylococcus aureus; conditions: LMY45; for MIC: 18 h
Description: as §3
as §2, with “h.” for “h. The MIC of the compounds was recorded as the lowest concentration at which no visible growth was observed.”

[3] = tested on: clinical S. aureus isolate LMY47; type: cell-based, Staphylococcus aureus; conditions: LMY47; for MIC: 18 h
Description: as §3
as §2, with “h.” for “h. The MIC of the compounds was recorded as the lowest concentration at which no visible growth was observed.”

MRSA-1 = type: cell-based, Staphylococcus aureus; conditions: MRSA-1; for MIC: 18 h
Description: as §3
as §2, with “h.” for “h. The MIC of the compounds was recorded as the lowest concentration at which no visible growth was observed.”

[4] = tested on: clinical S. aureus isolate LMY46; type: cell-based, Staphylococcus aureus; conditions: LMY46; for MIC: 18 h
Description: as §3
as §2, with “h.” for “h. The MIC of the compounds was recorded as the lowest concentration at which no visible growth was observed.”

P. aeruginosa ATCC 27853 = type: cell-based, Pseudomonas aeruginosa
Text: as §1, §2

E. faecium ATCC 35667 = type: cell-based, Enterococcus faecium; conditions: E. faecium ATCC 35667; for MIC: 18 h
Text: as §1, §2

[5] = tested on: K. pneumoniae ATCC 700603; type: cell-based, Klebsiella pneumoniae
Text: as §1, §2

A. baumannii ATCC 19606 = type: cell-based, Acinetobacter baumannii
Text: as §1, §2

[6] = Escherichia coli, ATCC25922, 18 h, read-out: MIC
[7] = Escherichia coli, ATCC25922, read-out: MBC
[8] = Staphylococcus aureus, ATCC29213, read-out: MIC
[9] = Staphylococcus aureus, ATCC29213, read-out: MBC
[10] = Staphylococcus aureus, read-out: MIC
[11] = Staphylococcus aureus, read-out: MBC
[12] = Pseudomonas aeruginosa, ATCC27853, 18 h, read-out: MIC
[13] = Enterococcus faecium, ATCC35667, read-out: MIC
[14] = Enterococcus faecium, ATCC35667, read-out: MBC
[15] = Klebsiella pneumoniae, ATCC700603, 18 h, read-out: MIC
[16] = Klebsiella pneumoniae, ATCC700603, read-out: MBC
[17] = Acinetobacter baumannii, ATCC19606, 18 h, read-out: MIC
[18] = Acinetobacter baumannii, ATCC19606, read-out: MBC

Molecule: (E)-2-(6-((4-chlorobenzyl)oxy)-3,4-dihydro-1(2H)-naphthalenylidene)hydrazine-1-carboxamide [Compound 1N]
MBC (E. coli ATCC 25922): 8 µg/mL
MIC (E. coli ATCC 25922; 18 h): 4 µg/mL
MBC (S. aureus ATCC 29213): 4 µg/mL
MIC (S. aureus ATCC 29213): 2 µg/mL
MBC [1]: 16 µg/mL
MIC [1]: 2 µg/mL
MBC (MRSA-2): 4 µg/mL
MIC (MRSA-2): 2 µg/mL
MBC [2]: 4 µg/mL
MIC [2]: 2 µg/mL
MBC [3]: 2 µg/mL
MIC [3]: 2 µg/mL
MBC (MRSA-1): 4 µg/mL
MIC (MRSA-1): 2 µg/mL
MBC [4]: 8 µg/mL
MIC [4]: 4 µg/mL
MBC (P. aeruginosa ATCC 27853): 32 µg/mL
MIC (P. aeruginosa ATCC 27853; 18 h): 16 µg/mL
MBC (E. faecium ATCC 35667): 8 µg/mL
MIC (E. faecium ATCC 35667): 2 µg/mL
MBC [5]: 32 µg/mL
MIC ([5]; 18 h): 16 µg/mL
MBC (A. baumannii ATCC 19606): 16 µg/mL
MIC (A. baumannii ATCC 19606; 18 h): 4 µg/mL

MIC (E. coli ATCC 25922; [6]): 4 µg/mL (≈ 10.6 µM)
MIC (S. aureus ATCC 29213; [8]): 2 µg/mL (≈ 5.31 µM)
MIC [1, 10]: 2 µg/mL (≈ 5.31 µM)
MIC (MRSA-2; [10]): 2 µg/mL (≈ 5.31 µM)
MIC [2, 10]: 1 µg/mL (≈ 2.66 µM)
MIC [3, 10]: 2 µg/mL (≈ 5.31 µM)
MIC (MRSA-1; [10]): 2 µg/mL (≈ 5.31 µM)
MIC [4, 10]: 2 µg/mL (≈ 5.31 µM)
MIC (P. aeruginosa ATCC 27853; [12]): 32 µg/mL (≈ 85 µM)
MIC (E. faecium ATCC 35667; [13]): 4 µg/mL (≈ 10.6 µM)
MIC [5, 15]: 32 µg/mL (≈ 85 µM)
MIC (A. baumannii ATCC 19606; [17]): 8 µg/mL (≈ 21.3 µM)
Molecule: [H]/N=C(\N)NN=C1CCCc2cc(OCc3cccc(C(F)(F)F)c3)ccc21 [Compound 1I, (E)-2-(6-((3-(trifluoromethyl)benzyl)oxy)-3,4-dihydronaphthalen-1(2H)-ylidene)hydrazine-1-carboximidamide]
MBC (E. coli ATCC 25922; [7]): 4 µg/mL (≈ 10.6 µM)
MBC (S. aureus ATCC 29213; [9]): 16 µg/mL (≈ 42.5 µM)
MBC [1, 11]: 2 µg/mL (≈ 5.31 µM)
MBC (MRSA-2; [11]): 4 µg/mL (≈ 10.6 µM)
MBC [2, 11]: 4 µg/mL (≈ 10.6 µM)
MBC [3, 11]: 2 µg/mL (≈ 5.31 µM)
MBC (MRSA-1; [11]): 16 µg/mL (≈ 42.5 µM)
MBC [4, 11]: 4 µg/mL (≈ 10.6 µM)
MBC (P. aeruginosa ATCC 27853; Pseudomonas aeruginosa, ATCC27853, read-out: MBC): 32 µg/mL (≈ 85 µM)
MBC (E. faecium ATCC 35667; [14]): 8 µg/mL (≈ 21.3 µM)
MBC [5, 16]: 32 µg/mL (≈ 85 µM)
MBC (A. baumannii ATCC 19606; [18]): 8 µg/mL (≈ 21.3 µM)

MIC (E. coli ATCC 25922; [6]): > 32 µg/mL
MIC (S. aureus ATCC 29213; [8]): 32 µg/mL (≈ 72 µM)
MIC [1, 10]: 4 µg/mL (≈ 9 µM)
MIC (MRSA-2; [10]): 8 µg/mL (≈ 18 µM)
MIC [2, 10]: 4 µg/mL (≈ 9 µM)
MIC [3, 10]: 4 µg/mL (≈ 9 µM)
MIC (MRSA-1; [10]): 16 µg/mL (≈ 36 µM)
MIC [4, 10]: 4 µg/mL (≈ 9 µM)
MIC (P. aeruginosa ATCC 27853; [12]): > 32 µg/mL
MIC (E. faecium ATCC 35667; [13]): 4 µg/mL (≈ 9 µM)
MIC [5, 15]: > 32 µg/mL
MIC (A. baumannii ATCC 19606; [17]): > 32 µg/mL
Molecule: [H]/N=C(\N)NN=C1CCCc2cc(OCc3cc(C(F)(F)F)cc(C(F)(F)F)c3)ccc21 [Compound 1K, (E)-2-(6-((3,5-bis(trifluoromethyl)benzyl)oxy)-3,4-dihydronaphthalen-1(2H)-ylidene)hydrazine-1-carboximidamide]
MBC [1, 11]: 8 µg/mL (≈ 18 µM)
MBC (MRSA-2; [11]): 32 µg/mL (≈ 72 µM)
MBC [2, 11]: 16 µg/mL (≈ 36 µM)
MBC [3, 11]: 8 µg/mL (≈ 18 µM)
MBC [4, 11]: > 32 µg/mL
MBC (E. faecium ATCC 35667; [14]): 16 µg/mL (≈ 36 µM)

MIC (E. coli ATCC 25922; [6]): 4 µg/mL (≈ 10.3 µM)
MIC (S. aureus ATCC 29213; [8]): 4 µg/mL (≈ 10.3 µM)
MIC [1, 10]: 2 µg/mL (≈ 5.16 µM)
MIC (MRSA-2; [10]): 2 µg/mL (≈ 5.16 µM)
MIC [2, 10]: 2 µg/mL (≈ 5.16 µM)
MIC [3, 10]: ≤ 1 µg/mL
MIC (MRSA-1; [10]): 1 µg/mL (≈ 2.58 µM)
MIC [4, 10]: 2 µg/mL (≈ 5.16 µM)
MIC (P. aeruginosa ATCC 27853; [12]): > 32 µg/mL
MIC (E. faecium ATCC 35667; [13]): 2 µg/mL (≈ 5.16 µM)
MIC [5, 15]: 32 µg/mL (≈ 82.6 µM)
MIC (A. baumannii ATCC 19606; [17]): 8 µg/mL (≈ 20.7 µM)
Molecule: [H]/N=C(\N)NN=C1CCCc2cc(OCc3ccccc3Br)ccc21 [Compound 1Q, (E)-2-(6-((2-bromobenzyl)oxy)-3,4-dihydronaphthalen-1(2H)-ylidene)hydrazine-1-carboximidamide]
MBC (E. coli ATCC 25922; [7]): 4 µg/mL (≈ 10.3 µM)
MBC (S. aureus ATCC 29213; [9]): 8 µg/mL (≈ 20.7 µM)
MBC [1, 11]: 2 µg/mL (≈ 5.16 µM)
MBC (MRSA-2; [11]): 8 µg/mL (≈ 20.7 µM)
MBC [2, 11]: 4 µg/mL (≈ 10.3 µM)
MBC [3, 11]: 4 µg/mL (≈ 10.3 µM)
MBC (MRSA-1; [11]): 8 µg/mL (≈ 20.7 µM)
MBC [4, 11]: 4 µg/mL (≈ 10.3 µM)
MBC (E. faecium ATCC 35667; [14]): 8 µg/mL (≈ 20.7 µM)
MBC [5, 16]: 32 µg/mL (≈ 82.6 µM)
MBC (A. baumannii ATCC 19606; [18]): 8 µg/mL (≈ 20.7 µM)

From PMC12250302, “Synthesis, Antimicrobial Activities, and Model of Action of Novel Tetralone Derivatives Containing Aminoguanidinium Moiety” (International Journal of Molecular Sciences, 2025)
